Series [1] has as its target T1, NAD-dependent protein deacetylase sirtuin-2 (Homo sapiens) (UniProt Q8IXJ6).
T1 sequence (whole entry): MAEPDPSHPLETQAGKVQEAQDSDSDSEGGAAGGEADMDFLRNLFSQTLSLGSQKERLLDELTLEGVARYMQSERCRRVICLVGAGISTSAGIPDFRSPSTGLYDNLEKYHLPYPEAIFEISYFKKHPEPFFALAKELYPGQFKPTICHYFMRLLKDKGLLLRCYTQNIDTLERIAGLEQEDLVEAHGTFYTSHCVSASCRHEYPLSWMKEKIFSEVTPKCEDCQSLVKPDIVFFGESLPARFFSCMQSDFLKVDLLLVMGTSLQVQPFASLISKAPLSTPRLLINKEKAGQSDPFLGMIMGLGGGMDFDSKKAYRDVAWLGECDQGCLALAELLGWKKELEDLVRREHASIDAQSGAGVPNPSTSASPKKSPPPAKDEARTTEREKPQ
Put plainly: Inhibition of SIRT2 in human MCF7 cells assessed as tubulin hyperacetylation at 0.1 uM after 16 hrs by Western blot. The class given is cell-based. (In western blotting, separated proteins are transferred to a membrane and probed.)

Series [2] concerns the target T2, NAD-dependent protein deacetylase sirtuin-1 (Homo sapiens) (UniProt Q96EB6).
T2 sequence (whole entry): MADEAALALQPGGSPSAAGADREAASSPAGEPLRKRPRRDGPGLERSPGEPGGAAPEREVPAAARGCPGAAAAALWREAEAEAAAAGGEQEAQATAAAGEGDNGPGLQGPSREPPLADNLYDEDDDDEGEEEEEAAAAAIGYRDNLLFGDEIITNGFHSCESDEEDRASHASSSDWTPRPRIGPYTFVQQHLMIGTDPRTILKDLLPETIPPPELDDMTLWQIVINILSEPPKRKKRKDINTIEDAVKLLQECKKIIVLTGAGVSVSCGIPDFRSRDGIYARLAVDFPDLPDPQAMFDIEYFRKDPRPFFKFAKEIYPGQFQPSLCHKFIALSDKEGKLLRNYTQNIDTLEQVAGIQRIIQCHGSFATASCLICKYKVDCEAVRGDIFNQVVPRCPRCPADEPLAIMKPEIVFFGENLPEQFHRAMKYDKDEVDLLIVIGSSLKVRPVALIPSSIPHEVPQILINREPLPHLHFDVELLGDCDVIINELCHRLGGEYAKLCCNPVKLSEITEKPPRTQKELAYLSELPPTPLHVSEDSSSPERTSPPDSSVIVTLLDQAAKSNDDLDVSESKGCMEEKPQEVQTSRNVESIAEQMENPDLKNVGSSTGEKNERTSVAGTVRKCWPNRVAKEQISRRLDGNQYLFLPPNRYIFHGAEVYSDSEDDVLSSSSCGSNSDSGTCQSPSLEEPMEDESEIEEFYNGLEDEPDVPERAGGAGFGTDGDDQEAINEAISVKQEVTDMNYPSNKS
Description: Inhibition of human recombinant N-terminally GST-tagged SIRT1 at 50 uM after 4 hrs in presence of NAD+ by fluorescent deacetylase assay.

Series [3] deals with T3, NAD-dependent protein deacetylase sirtuin-3, mitochondrial (Homo sapiens) (UniProt Q9NTG7).
T3 sequence (whole entry): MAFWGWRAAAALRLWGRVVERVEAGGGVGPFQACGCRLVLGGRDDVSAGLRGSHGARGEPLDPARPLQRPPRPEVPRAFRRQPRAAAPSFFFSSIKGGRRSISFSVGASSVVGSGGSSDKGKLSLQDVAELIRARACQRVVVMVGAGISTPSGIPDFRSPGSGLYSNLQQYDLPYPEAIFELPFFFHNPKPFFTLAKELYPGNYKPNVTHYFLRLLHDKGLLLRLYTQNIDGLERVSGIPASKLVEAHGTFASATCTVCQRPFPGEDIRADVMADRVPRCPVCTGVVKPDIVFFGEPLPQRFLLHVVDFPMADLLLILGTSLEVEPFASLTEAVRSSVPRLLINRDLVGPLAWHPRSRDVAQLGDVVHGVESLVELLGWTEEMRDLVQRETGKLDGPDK
Put plainly: Inhibition of human recombinant N-terminally 6X-His-tagged SIRT3 at 50 uM after 4 hrs in presence of NAD+ by fluorescent deacetylase assay.

The target in series [4] is T1, NAD-dependent protein deacetylase sirtuin-2 (Homo sapiens). Description: Inhibition of human recombinant N-terminally 6X-His-tagged SIRT2 at 50 uM after 4 hrs in presence of NAD+ by fluorescent deacetylase assay.
Series [5] has the same target. Put plainly: Inhibition of SIRT2 in human MCF7 cells assessed as tubulin hyperacetylation at 10 uM after 16 hrs by Western blot. It is filed as cell-based.
A further series concerns HepG2. Put plainly: Toxicity in human HepG2 cells after 6 hrs. As to conditions: hepg2, 6 h. It is filed as cell-based.
For series [6], the target named is T1, NAD-dependent protein deacetylase sirtuin-2 (Homo sapiens). Description: Inhibition of SIRT2 in human HepG2 cells assessed as alpha-tubulin hyperacetylation after 6 hrs by ELISA. It is filed as cell-based.
The target in series [7] is T4, NAD-dependent protein deacetylase sirtuin-2 (Homo sapiens, UniProt Q8IXJ6).
T4 sequence (Q8IXJ6 whole entry): T1 sequence (whole entry)
Put plainly: Inhibition of human recombinant N-terminally 6X-His-tagged SIRT2 after 4 hrs in presence of NAD+ by fluorescent deacetylase assay.

The target in series [8] is T5, NAD-dependent protein deacetylase sirtuin-1 (Homo sapiens, UniProt Q96EB6).
T5 sequence (Q96EB6 whole entry): T2 sequence (whole entry)
Description: Inhibition of human recombinant N-terminally GST-tagged SIRT1 after 4 hrs in presence of NAD+ by fluorescent deacetylase assay.

SMILES strings stand for the structures. Active and inactive are the calls of the source. The calls are words filed in the database; no cut-off is given here. Some results are limits rather than exact numbers.

Consider `CC(/C=C/C(=O)NO)=C\[C@@H](C)C(=O)c1ccc(N(C)C)cc1`, for which the outcome in series [1] was Active.
Take `Cc1cc(C)c(/C=C2\C(=O)Nc3c2ccc(Cl)c3Cl)[nH]1`: the inhibition was 19.9% in series [2] and less than 10% in series [3].
For `O=C1Nc2c(ccc(Cl)c2Cl)/C1=C\c1ccccn1`, the inhibition was 22.7% in [2], less than 10% in series [3] and 20.6% in [4].
Take `O=C1Nc2c(ccc(Cl)c2Cl)/C1=C/c1cc(C(F)(F)F)cc(C(F)(F)F)c1`: the results for the inhibition in series [2] and in series [3] were 19.8% and less than 10%, respectively.
For the compound `O=C1Nc2c(ccc(Cl)c2Cl)/C1=C/c1ccc(C(F)(F)F)cc1`, the inhibition in series [2] is 45.4%; in series [3], less than 10%; in series [4], 18.3%.
For `COc1cc(/C=C2\C(=O)Nc3c2ccc(Cl)c3Cl)cc(OC)c1OC`, in that order: less than 10%, less than 10% and less than 10%.
Regarding `Cn1cc(C2=C(c3cn(CCCSC(=N)N)c4ccccc34)C(=O)NC2=O)c2ccccc21`, the outcome in [5] was Active.
Turning to `O=C1Nc2c(ccc(Cl)c2Cl)/C1=C/c1ccc(F)cc1`, in the series on HepG2, the Activity entry is reported as “Non-toxic”. The values for the inhibition in series [2] and in series [3] were 24.4% and less than 10%, respectively. Further, the result in series [6] was inactive.
Take `O=C1Nc2c(ccc(Cl)c2Cl)/C1=C\c1ccncc1`: the values for the inhibition in [2], in series [3] and in series [4] were 19.6%, less than 10% and 16.5%, respectively.
Regarding `O=C1Nc2c(ccc(Cl)c2Cl)/C1=C/c1ccc([N+](=O)[O-])cc1`, the figures for the inhibition in series [2] and in series [3] were 30.2% and less than 10%, respectively. Besides, the half-maximal inhibitory concentration (IC50) in [7] came to 10.4 µM.
For the compound `O=C1Nc2c(ccc(Cl)c2Cl)/C1=C/c1ccc(O)cc1`, the inhibition is less than 10% in series [2], 13.5% in series [3] and 34.7% in series [4].
Consider `O=C1Nc2c(ccc(Cl)c2Cl)/C1=C/c1cc(Br)c(O)c(Br)c1`, for which the Activity result in the series with HepG2 is listed as “Non-toxic”. Besides, the IC50 in series [8] amounted to 40.6 µM; in series [7], 28.4 µM. For the same compound, the result in series [6] was Active.
As to `Cn1c2c(Cl)c(Cl)ccc2c2cc[nH]c(=O)c21` [BAUERINE C], the inhibition in series [2] and in [3] was less than 10% in each case.
As for `CN(C)c1ccc(/C=C2\C(=O)Nc3c2ccc(Cl)c3Cl)cc1`, the inhibition in [2] is 20.7%; in series [3] it was less than 10%; in [4], less than 10%.
In the case of `CCN(CC)CCNC(=O)c1c(C)[nH]c(/C=C2\C(=O)Nc3ccc(F)cc32)c1C` [SUNITINIB], the inhibition is less than 10% in series [2] and 26.4% in series [3]. In addition, the IC50 in series [7] was 123 µM.

Usually inhibition stands for how much of the control response was suppressed. The IC50 is the concentration at which inhibition is half-maximal.

(Values after ChEMBL document CHEMBL1156803, “Novel 3-arylideneindolin-2-ones as inhibitors of NAD+ -dependent histone deacetylases (sirtuins)” (J Med Chem, 2010).)
